Common to all, as to assay type: in vivo, mouse
Assay [1] has as its system BALB/c mice. Nature of the assay: Tail suspension test (immobility time). The note with it: continuous mirtazapine 10 mg/kg/d (drug and always); day 22 after tumor inoculation. Here is the method:
(§1) Second, all animal study protocols were approved by the Institutional Animal Care and Use Committee (IACAU) of National Yang Ming University. Mirtazapine (0.25 mg) was dissolved in 0.05 ml of 0.9% NaCl plus 0.5% absolute ethanol for each mouse (i.e. 10 mg/kg.) Male BALB/c mice (initial weights 25±2 g, and purchased from the National Laboratory Animal Center, Taipei, Taiwan) were housed in the cages, five mice per cage, under a 12:12 h reverse light/dark cycle with lights off at 6 pm Animals were handled and weighed daily for a week to reduce any non-specific stress responses. […] “Wild-type” means the mice are monitored without tumor inoculation and mirtazapine treatment, drug means the mice are monitored with continuous mirtazapine treatment but without tumor inoculation, never means the mice are monitored with tumor inoculation and daily 0.05 ml of 0.9% NaCl plus 0.5% absolute ethanol treatment but without mirtazapine treatment, always means the mice are monitored with mirtazapine treatment initiated 2 weeks before the tumor inoculation, and concurrent means the mice are monitored with tumor inoculation and mirtazapine treatment on the same day, and after means the mice are monitored with mirtazapine treatment initiated 2 weeks post the tumor inoculation. […]

Assay [2] has as its system BALB/c mice. Nature of the assay: Spontaneous motor activity assay. The note with it: continuous mirtazapine 10 mg/kg/d (drug and always); day 22 after tumor inoculation. Here is the method:
as §1

The test system of the next assay is CT26/luc tumor. Nature of the assay: CT26/luc tumor growth in SCID mice. The settings on record: always-SCID vs never-SCID. An excerpt:
Also, Applicant divides other six-weeks-old immunodeficient male SCID mice (purchased from the National Laboratory Animal Center, Taiwan) into two groups, such as the group named “never-SCID” (hereafter called “never-SCID”) and the group named “always-SCID” (hereafter called “always-SCID”), as control groups for verifying the involvement of the immune system in the inhibition of the tumor growth by mirtazapine. Never-SCID means that the mice are monitored with tumor inoculation but without mirtazapine treatment, and always-SCID means the mice are monitored with mirtazapine treatment initiated 2 weeks before tumor inoculation. As to the tumor growth, it was monitored using a digital caliper twice a week. The tumor volume was calculated according the following formula: 0.5236×length×width×thickness Bioluminescence imaging (hereafter called “BLI”) used for tumor size tracking was performed with an IVIS50 animal imaging system (Xenogen Corp., USA).

A further assay relates to CD4+ and CD8+ T cells. Nature of the assay: Lymph node CD4+ and CD8+ T lymphocyte subsets by FACS. The settings on record: flow cytometry. Here is the method:
Preferably, the results as shown in FIG. 4C and FIG. 4D are performed by a flow cytometer, and a target cell population will be screened out by utilizing at least one flow cytometer to identify different surface markers of different cells. Flow cytometry allows for single cell analysis at speeds far surpassing any other single cell analysis technology in the art. This enables a statistically significant number of cells to be analyzed faster than using other alternative techniques. In a preferred embodiment, a flow cytometer is used with any suitable sample preparation robot or liquid handler that is known in the art. Furthermore, a single laser flow cytometer is used in an embodiment for the analyzing step. In another embodiment, a multi-laser flow cytometer is used for the analyzing step and the present invention is not limited thereto.
Second, all animal study protocols were approved by the Institutional Animal Care and Use Committee (IACAU) of National Yang Ming University. Mirtazapine (0.25 mg) was dissolved in 0.05 ml of 0.9% NaCl plus 0.5% absolute ethanol for each mouse (i.e. 10 mg/kg.) Male BALB/c mice (initial weights 25±2 g, and purchased from the National Laboratory Animal Center, Taipei, Taiwan) were housed in the cages, five mice per cage, under a 12:12 h reverse light/dark cycle with lights off at 6 pm Animals were handled and weighed daily for a week to reduce any non-specific stress responses. And then, please refer to FIG. 1A and FIG. 1B, FIG. 1A and FIG. 1B are diagrams showing the experimental designs according to an embodiment of the present invention. […] “Wild-type” means the mice are monitored without tumor inoculation and mirtazapine treatment, drug means the mice are monitored with continuous mirtazapine treatment but without tumor inoculation, never means the mice are monitored with tumor inoculation and daily 0.05 ml of 0.9% NaCl plus 0.5% absolute ethanol treatment but without mirtazapine treatment, always means the mice are monitored with mirtazapine treatment initiated 2 weeks before the tumor inoculation, and concurrent means the mice are monitored with tumor inoculation and mirtazapine treatment on the same day, and after means the mice are monitored with mirtazapine treatment initiated 2 weeks post the tumor inoculation. That is, the mice were assayed on day 22 for behaviors, and then sacrificed for the measurement of lymphocyte subsets and performed with ex vivo autoradiography.
As to the quantification of interleukin-12 (hereafter called “IL-12”), the whole blood withdrawn from the pouch of each mouse was centrifuged at 600×g for 20 min, and serum was collected. The serum IL-12p70 (sIL-12) level was determined using an ELISA kit (R&D Systems, Taiwan). Identification for the lymph node cluster of differentiated CD4+ T helper and CD8+T-cytotoxic lymphocyte subsets was assayed. Briefly, the lymphocytes isolated from the lymph nodes of groins of mice were stained with phycoerythrin-conjugated antimouse CD4 (CD4-PE) monoclonal antibody and peridininchlorophyll-protein-complex-conjugated anti-mouse CD8 (CD8-PerCP) monoclonal antibody (BioLegend, USA). Lymphocyte subsets were identified by FACS analysis using a FACS Calibur flow cytometer. Immunohistochemistry (IHC) of CD4 and CD8 was also performed on day 42 post the tumor inoculation. Tumors were then removed, paraffin embedded, and […] sectioning was performed. The sections were immunohistostained with antibodies against CD4 (BioLegend, USA) and CD8 (BioLegend, USA), respectively. The procedures of immunohistostaining were followed the protocols provided with the IHC kit (Millipore, USA). All images were digitally captured on a Scanscope CS system (Aperio, USA).

Another assay relates to IL-12p70. Nature of the assay: Serum sIL-12 in SCID mice. The note with it: SCID mice after mirtazapine treatment. An excerpt: Also, Applicant divides other six-weeks-old immunodeficient male SCID mice (purchased from the National Laboratory Animal Center, Taiwan) into two groups, such as the group named “never-SCID” (hereafter called “never-SCID”) and the group named “always-SCID” (hereafter called “always-SCID”), as control groups for verifying the involvement of the immune system in the inhibition of the tumor growth by mirtazapine. Never-SCID means that the mice are monitored with tumor inoculation but without mirtazapine treatment, and always-SCID means the mice are monitored with mirtazapine treatment initiated 2 weeks before tumor inoculation. As to the quantification of interleukin-12 (hereafter called “IL-12”), the whole blood withdrawn from the pouch of each mouse was centrifuged at 600×g for 20 min, and serum was collected. The serum IL-12p70 (sIL-12) level was determined using an ELISA kit (R&D Systems, Taiwan). Identification for the lymph node cluster of differentiated CD4+ T helper and CD8+T-cytotoxic lymphocyte subsets was assayed. Briefly, the lymphocytes isolated from the lymph nodes of groins of mice were stained with phycoerythrin-conjugated antimouse CD4 (CD4-PE) monoclonal antibody and peridininchlorophyll-protein-complex-conjugated anti-mouse CD8 (CD8-PerCP) monoclonal antibody (BioLegend, USA). Lymphocyte subsets were identified by FACS analysis using a FACS Calibur flow cytometer. […]

Another assay concerns TNF-α. Nature of the assay: Serum TNF-α ELISA. The note with it: tumor-bearing mice with vs without mirtazapine; weekly up to 6 weeks post tumor inoculation. Background: An ELISA detects its analyte on a solid surface through an enzyme-linked reagent.
The mark [3] stands for this setting: group Always, CT26/luc tumor-bearing.
The mark [4] stands for this setting: group Concurrent, CT26/luc tumor-bearing.
Setting [5] is: group Drug: continuous mirtazapine 10 mg/kg/d, no tumor.
[6] abbreviates: group after, CT26/luc tumor-bearing.

Structures are written as SMILES.

Description for TNF-α: As to the quantification of TNF-α, the whole blood withdrawn from the pouch of each mouse once a week for up to 6 weeks was centrifuged at 600×g for 20 min, and serum was collected. The serum TNF-α level was evaluated with an ELISA kit (eBioscience, USA).

With `CN1CCN2c3ncccc3Cc3ccccc3C2C1` (stereo not shown) [mirtazapine], the immobility time result in the assay on BALB/c mice [1] was “significantly decreased”. In the assay on BALB/c mice [2], the spontaneous motor activity result was “no effect”. In addition, the “tumor inhibition effect in SCID mice” value in the assay on CT26/luc tumor is listed as “not found”. Moreover, the “CD4+ T cells (10^4 events)” value with CD4+ and CD8+ T cells (setting [3]) was 29.75 ± 1.96%; with CD4+ and CD8+ T cells (setting [4]), 25.77 ± 0.73%; in the assay with CD4+ and CD8+ T cells (setting [5]), 30.97 ± 1.40%; in the assay on CD4+ and CD8+ T cells (setting [6]) it was 22.58 ± 1.15%. Besides, the “CD8+ T cells (10^4 events)” value with CD4+ and CD8+ T cells (setting [3]) was found to be 32.77 ± 7.43%; in the assay on CD4+ and CD8+ T cells (setting [4]), 22.41 ± 5.03%; with CD4+ and CD8+ T cells (setting [5]) it was 30.95 ± 6.57%; in the assay with CD4+ and CD8+ T cells (setting [6]), 15.86 ± 4.78%. In addition, the “increase of sIL-12 level in SCID mice” value in the assay on IL-12p70 is “not found”. In the assay with TNF-α, the “serum TNF-α level” value was “no significant difference”.

The values are drawn from US20140271727A1, “METHOD OF USING AN ANTIDEPRESSANT FOR INCREASING IMMUNITY OF A SUBJECT AND TREATING CANCER” (NATIONAL YANG-MING UNIVERSITY, priority 2013, published 2014).
